Measurements reported in article PMC9696794, “Synthesis and Antimicrobial Activity of Short Analogues of the Marine Antimicrobial Peptide Turgencin A: Effects of SAR Optimizations, Cys-Cys Cyclization and Lipopeptide Modifications” (International Journal of Molecular Sciences, 2022).
Where a SMILES comes first, the peptide text is derived from it. The star is where a group is joined. Lauroyl = CCCCCCCCCCCC(=O)*; Decanoyl = CCCCCCCCCC(=O)*

Experiments:
[1] = tested on: B. subtilis (Bs, ATCC 23857); test: microbe, parasite or virus in culture; format: cell-based, Bacillus subtilis; details: ATCC 23857, 24 h
Protocol: (§1) All cyclic and linear peptides were screened for antibacterial activity against four Gram-positive strains: B. subtilis (Bs, ATCC 23857), C. glutamicum (Cg, ATCC 13032), S. aureus (Sa, ATCC 9144) and S. epidermidis RP62A (Se, ATCC 35984), and two Gram-negative strains: E. coli (Ec, ATCC 25922) and P. aeruginosa (Pa, ATCC 27853). The activity was assessed using a broth microdilution assay according to a modified CLSI-based method. Briefly, overnight bacterial cultures were grown in Mueller–Hinton (MH) broth medium (Difco Laboratories, Detroit, MI, USA) for 2 h at room temperature. The optical density (OD600) was measured, and the bacterial suspensions were adjusted to 2.5–3 × 10^4 CFU/mL in MH medium. The bacterial suspension (50 µL) was distributed in 96-well plates (Nunc, Roskilde, Denmark) preloaded with two-fold dilution series (256 to 1 µg/mL) of peptide solutions (50 µL), giving a final well volume of 100 µL. The microplates were incubated in an EnVision 2103 microplate reader (PerkinElmer, Llantrisant, UK) at 35 °C, with OD595 recorded every hour for 24 h. MIC was defined as the lowest concentration of peptides showing an optical density less than 10% of the negative (growth) control, consisting of bacterial suspension and water. Polymyxin B sulfate (Sigma-Aldrich, St. Louis, MO, USA) and chlorhexidine acetate (CHX, Fresenius Kabi, Halden, Norway), both with concentrations ranging from 12.5 to 0.09 μg/mL, served as positive (growth inhibition) controls. All peptides were tested in triplicate.

[2] = tested on: C. glutamicum (Cg, ATCC 13032); test: microbe, parasite or virus in culture; format: cell-based, Corynebacterium glutamicum; details: ATCC 13032, 24 h
Protocol: as §1

[3] = tested on: S. aureus (Sa, ATCC 9144); test: microbe, parasite or virus in culture; format: cell-based, Staphylococcus aureus; details: ATCC 9144, 24 h
Protocol: as §1

[4] = tested on: S. epidermidis RP62A (Se, ATCC 35984); test: microbe, parasite or virus in culture; format: cell-based, Staphylococcus epidermidis; details: ATCC 35984, 24 h
Protocol: as §1

E. coli (Ec, ATCC 25922) = test: microbe, parasite or virus in culture; format: cell-based, Escherichia coli; details: ATCC 25922, 24 h
Protocol: as §1

[5] = tested on: P. aeruginosa (Pa, ATCC 27853); test: microbe, parasite or virus in culture; format: cell-based, Pseudomonas aeruginosa; details: ATCC 27853, 24 h
Protocol: as §1

all bacterial strains = test: Antibacterial MIC assay, all bacterial strains together (range or geometric mean); format: cell-based; details: for GM (geometric mean of the MIC values against all bacterial strains): Table 1, six bacterial strains; for GM of MIC Tot. bact.: Table S3, all bacterial test strains, MIC >256 set to 256
Protocol: The selectivity index (SI) of the peptides towards bacteria over eukaryotic cells was calculated using the geometric mean (GM) of the MIC values against all bacterial test strains, according to the method by Orlov et al.. The SI for each peptide was determined as the ratio of the RBC-EC50 value by the corresponding GM value. Larger SI values indicate greater selectivity for microbial cells. […] In general, the SI was higher against the Gram-positive bacteral strains than the Gram-negative strains. (Table S3). Overall, peptides displaying EC50 < 100 µg/mL were considered too haemolytic to be of interest for further exploration.
as §1

A. pullulans (Ap) = test: microbe, parasite or virus in culture; format: cell-based, Aurobasidium pollulans; details: 48 h
Protocol: (§2) The synthesized peptides were screened for antifungal activity against the molds A. pullulans (Ap) and Rhodotorula sp. (Rh) (both obtained from Professor Arne Tronsmo, The Norwegian University of Life Sciences, Ås, Norway) and the yeast C. albicans (Ca, ATCC 10231) as previously described. In short, fungal spores were grown in potato dextrose broth media (Difco) containing 2% D(+)-glucose (Merck, Darmstadt, Germany) at 25–30 °C while shaking at 200 rpm overnight. The cultures were diluted with a dextrose media containing glucose to a concentration of approx. 4 × 10^5 spores/mL. Aliquots of the cultures (50 µL) were transferred to 96 well microtiter plates preloaded with the synthetic peptides (50 µL) in two-fold serial dilutions (256 to 1 µg/mL). Polymyxin B and CHX (both with concentrations ranging from 12.5 to 0.09 μg/mL) served as positive antibiotic controls. The microtiter plates containing the fungal spores and the test peptides were incubated at room temperature for 48 h and OD600 was recorded using a Synergy H1 Hybrid microplate reader system (BioTek, Winooski, VT, USA). MIC was defined as the lowest peptide concentration showing an optical density less than 10% of the negative (growth) control. All experiments were performed in triplicate.

[6] = tested on: C. albicans (Ca, ATCC 10231); test: microbe, parasite or virus in culture; format: cell-based, Candida albicans; details: ATCC 10231, 48 h
Protocol: as §2

Rhodotorula sp. (Rh) = test: microbe, parasite or virus in culture; format: cell-based; details: 48 h
Protocol: as §2

[7] = tested on: human red blood cells (RBC); test: Haemolytic activity assay; format: cell-based; details: for Selectivity index (SI) G- / Selectivity index (SI) G+ / Selectivity index (SI) Fungi: Table S3, highest tested concentration used where EC50 above it; for Selectivity index (SI) G-: EC50/GM of Gram-negative strains; for Selectivity index (SI) G+: EC50/GM of Gram-positive strains; for Selectivity index (SI) Fungi: EC50/GM of fungi
Protocol: The synthetized lipopeptides were screened for haemolytic activity against human red blood cells (RBC), in concentrations ranging from 500 to 3.9 μM, following a previously described protocol. In brief, haemolysis was determined using a heparinizied (10 IU/mL) fraction of freshly drawn human blood. A second fraction of blood, which was collected in test tubes containing ethylenediaminetetraacetic acid (EDTA, Vacutest, KIMA, Arzergrande, Italy), was used for determination of the hematocrit (hct). Plasma was removed from heparinized blood by washing three times with prewarmed phosphate-buffered saline (PBS) before being adjusted to a hematocrit of 4%. Peptides dissolved in dimethyl sulfoxide (DMSO) were further diluted with PBS to a final DMSO content of ≤1%. Triton X-100 (Sigma-Aldrich, St. Louis, MO, USA), used at a final concentration of 0.1%, served as a positive control for 100% haemolysis, whereas 1% DMSO in PBS buffer served as a negative control where no toxicity was detected. Duplicates of test solutions and erythrocytes, with 1% hct final concentration, were prepared in a 96-well polypropylene V-bottom plate (Nunc, Fischer scientific, Oslo, Norway). They were incubated under agitation at 37 °C and 800 rpm for 1 h. After centrifugation (5 min, 3000× g), 100 µL from each well were transferred to a flat-bottomed 96-well plate and absorbance was measured at 545 nm with a microplate reader (SpectraMax 190, Molecular Devices, San Jose, CA, USA). After subtracting PBS background, the percentage of haemolysis was calculated as the ratio of the absorbance in the peptide-treated and surfactant-treated samples. Three independent experiments were performed, and EC50 (the concentration giving 50% haemolysis) values are presented as averages.

[8] = tested on: Gram-positive bacterial strains; details: for GM of MIC G+: Table S3, MIC >256 set to 256
Protocol: as §1

[9] = tested on: Gram-negative bacterial strains (E. coli and P. aeruginosa); test: Antibacterial MIC assay, Gram-negative strains together (range or geometric mean); format: cell-based; details: Table S3; MIC >256 set to 256
Protocol: as §1

[10] = tested on: fungi (A. pullulans, C. albicans, Rhodotorula sp.); test: Antifungal MIC assay, all fungi together (range or geometric mean); format: cell-based; details: Table S3; MIC >128 set to 128
Protocol: as §2

| Structure (SMILES) | Antimicrobial Activity (MIC) Gram + Bs [1] [µg/mL] | Antimicrobial Activity (MIC) Gram + Cg [2] [µg/mL] | Antimicrobial Activity (MIC) Gram + Sa [3] [µg/mL] | Antimicrobial Activity (MIC) Gram + Se [4] [µg/mL] | Antimicrobial Activity (MIC) Gram − Ec (E. coli (Ec, ATCC 25922)) [µg/mL] | Antimicrobial Activity (MIC) Gram − Pa [5] [µg/mL] | GM (geometric mean of the MIC values against all bacterial strains) (all bacterial strains) [µg/mL] | GM of MIC Tot. bact. (all bacterial strains) [µg/mL] | Antimicrobial Activity (MIC) Fungi Ap (A. pullulans (Ap)) [µg/mL] | Antimicrobial Activity (MIC) Fungi Ca [6] [µg/mL] | Antimicrobial Activity (MIC) Fungi Rh (Rhodotorula sp. (Rh)) [µg/mL] | Selectivity index (SI) G- [7] | Selectivity index (SI) G+ [7] | Selectivity index (SI) Fungi [7] | SI (selectivity index = EC50/GM) ([7]; haemolytic EC50 over GM of MIC against all bacterial strains, Table 1) | MIC against the Gram-positive bacterial strains ([8]; 2 h) [µg/mL] | GM of MIC G+ [8] [µg/mL] | GM of MIC G- [9] [µg/mL] | GM of MIC Fungi [10] [µg/mL] | RBC Tox. (EC50), haemolytic activity ([7]; human RBC, 1 h, 37 °C, concentration giving 50% haemolysis) [µg/mL] |
| --- | --- | --- | --- | --- | --- | --- | --- | --- | --- | --- | --- | --- | --- | --- | --- | --- | --- | --- | --- | --- |
| CCCCCCCCCC(=O)N[C@@H](CS)C(=O)NCC(=O)N[C@@H](CCCCN)C(=O)N[C@@H](CCCCN)C(=O)N[C@@H](Cc1c[nH]c2ccccc12)C(=O)N[C@@H](Cc1c[nH]c2ccccc12)C(=O)NCC(=O)N[C@@H](Cc1c[nH]c2ccccc12)C(=O)N[C@@H](CCCCN)C(=O)N[C@@H](CS)C(=O)N[C@@H](CCCCN)C(=O)N[C@@H](CC(C)C)C(N)=O [Peptide C10-Turg-2, C10- CGKKWWGWKC KL-NH2] (Decanoyl-CGKKWWGWKCKL-NH2) | 8 | 4 | 8 | 8 | 8 | 16 | 8 | 8 | 32 | 64 | 32 | 6 | 10 | 2 | 8 | 4 to 8 | 7 | 11 | 40 | – |
| CCCCCCCCCCCC(=O)N[C@@H](CS)C(=O)NCC(=O)N[C@@H](CCCCN)C(=O)N[C@@H](CCCCN)C(=O)N1CCC[C@H]1C(=O)NCC(=O)NCC(=O)N[C@@H](Cc1c[nH]c2ccccc12)C(=O)N[C@@H](CCCCN)C(=O)N[C@@H](CS)C(=O)N[C@@H](CCCCN)C(=O)N[C@@H](CC(C)C)C(N)=O [Peptide C12-Turg-1, C12- CGKKPGGWKC KL-NH2] (Lauroyl-CGKKPGGWKCKL-NH2) | 4 | 4 | 8 | 4 | 8 | 16 | 6 | 6 | 32 | 64 | 8 | > 86 | > 204 | > 38 | – | – | 5 | 11 | 25 | >971 |
